Data reported in publication PMC6342294, “Asymmetric diversification of mating pheromones in fission yeast” (PLoS Biology, 2019).

What was measured:
Map3 = molecular target: T1, Map3 (Schizosaccharomyces pombe, UniProt P31397); experiment: Shmooing assay of synthetic M-factor peptides on P cells lacking rgs1+ (TS405); type: cell-based, S. pombe; details: EMM2−N
T1 construct: an M-factor-sensitive strain lacking the rgs1^+ gene [53]; endogenous in cells; host or cells: S. pombe heterothallic haploid P cells lacking rgs1+ (TS405)
T1 sequence (P31397 1-365): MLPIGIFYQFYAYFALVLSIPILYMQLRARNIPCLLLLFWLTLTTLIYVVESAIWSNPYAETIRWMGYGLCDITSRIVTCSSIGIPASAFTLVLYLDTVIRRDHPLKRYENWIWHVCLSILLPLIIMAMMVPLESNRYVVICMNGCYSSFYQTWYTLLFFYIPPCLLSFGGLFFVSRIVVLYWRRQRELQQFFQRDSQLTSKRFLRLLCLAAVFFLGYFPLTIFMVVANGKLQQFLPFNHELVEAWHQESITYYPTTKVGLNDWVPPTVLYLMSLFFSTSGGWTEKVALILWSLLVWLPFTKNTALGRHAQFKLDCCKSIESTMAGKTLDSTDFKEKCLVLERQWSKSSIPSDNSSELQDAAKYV
Procedure: Under these conditions, approximately 40% of cells treated with Sp-M-factor peptide underwent shmoo formation, whereas no cells treated with So-M-factor peptide underwent shmooing (S5B Fig). When the concentration of So-M-factor was raised to 1,000 nM, the cells underwent shmoo elongation a little (S5B Fig).
P-factor and M-factor peptides were chemically synthesized (Eurofins) for the shmooing assay. The purity of the preparations was over 95% (HPLC). P-factor was dissolved in dimethyl sulfoxide (DMSO) at a concentration of 500 μM, and M-factor was dissolved in methanol (MeOH) at a concentration of 1 mM. The stock solutions were diluted with culture medium to the appropriate dilution ratio. For the assay, heterothallic haploid cells were grown in YE medium overnight, washed with sterilized water three times, and then resuspended in EMM2−N medium at a cell density of 4 × 10^7 cells/ml. The cells were treated with the synthetic pheromone and incubated for exactly 24 hours with gentle shaking.
To assess whether Mam2 could recognize different P-factors, a P-factor sensitive strain lacking the sxa2^+ gene (TS402) was used. The cells were incubated with synthetic P-factors at different concentrations (0, 10, 100, and 1,000 nM) for 24 hours and observed by a DIC microscope. Images were recorded, and the L and W of a cell were measured to determine the L/W ratio. […] In all cases, at least 100 cells each were measured. […] The cells were treated with synthetic M-factors at different concentrations (0, 100, and 1,000 nM) for 24 hours, and analyzed, as described above.
Supplementary file pbio.3000101.s005.tif: S5 Fig Effects of mating pheromones of S. octosporus on S. pombe cells. […] The ability of each M-factor peptide to induce shmooing was assessed by the L/W ratio of a cell, as described in S3 Fig. (C) Comparison of the amino sequences of Sp-P-factors and So-P-factors. […] The shmooing assay was evaluated as described in S3 Fig. EMM2−N, Edinburgh Minimal Medium 2 lacking nitrogen; L, length; M, Minus; P, Plus; rgs, regulator of G-protein signaling; So, S. octosporus; Sp, S. pombe; W, width. […]

S. pombe cells = experiment: Quantitative assay of zygote formation (mating efficiency), S. pombe strains; type: cell-based; details: peptide produced by engineered strain; mfm1 gene integrated in M-factorless strain FY23412; MEA, 2 days, 30 °C; mean ± SD of triplicate
Procedure: The resulting strains each produced one of the six P-factors. The mating efficiency of these strains was assessed by the frequency of zygotes. […] To determine whether the order of nucleotide sequences encoding mature P-factor affects zygote frequency, we also introduced a map2 gene carrying a permuted sequence of repeats (P2-P3-P2-P1) into the FY23418 strain. Similar to the strain with the native sequence, this strain also mated at high frequency (74.2% ± 1.7%) (Fig 2D); therefore, the effect of peptide-coding position appears small.
Next, we assessed whether the pheromone peptides of S. octosporus are effective on S. pombe cells. […] Next, we replaced the Sp-M-factor–encoding sequence in the mfm1^+ gene with the So-M-factor–encoding sequence (mfm1^So). […] In short, S. pombe P cells were unable to mate with M cells producing So-M-factor. […] We also replaced the So-P-factor–encoding sequence (7 repeats) in the So-map2^+ gene with the Sp-P-factor–encoding sequence (4 repeats) (So-map2^Sp) in S. octosporus cells. […]
Cells grown on YEA plates overnight were resuspended in sterilized water to a cell density of 1 × 10^8 cells/ml. […] The percentage of zygotes was calculated, as described previously. In all cases, triplicate samples (at least 300 cells each) were counted, and the mean and standard deviation (SD) were calculated.

[1] = TS405 P cells (rgs1Δ), 100 nM synthetic M-factor, one day

YQPKPPAMC^Far-OCH3 [So-M-factor, putative M-factor of S. octosporus, farnesylated methylated nonapeptide]
Shmooing at 100 nM (in words) (Map3; [1]): no cells
Shmoo elongation at 1,000 nM (in words) (Map3; TS405 P cells (rgs1Δ), 1,000 nM synthetic M-factor, 24 hours): a little
Mating efficiency (zygotes) of S. pombe strain producing only this M-factor (S. pombe cells): completely sterile

YTPKVPYMC^Far-OCH3 [Sp-M-factor, S. pombe mature M-factor, farnesylated and methylated peptide of nine amino acids, reference compound]
Proportion of cells that underwent shmoo formation, 100 nM (Map3; [1]): approximately 40%
Mating efficiency (zygotes) of S. pombe strain producing only this M-factor (S. pombe cells): 72.1% ± 3.7%
